Entries after “also recorded” stand apart in the source; their conditions may differ.
Assays:
[1] = test system: patients with moderate to severe precapillary pulmonary hypertension; assay: Acute vasodilator challenge during right heart catheter investigation: inhaled treprostinil applied by soft mist inhaler (Example 1); settings: for CO (max) / HR (max) / SvO2 (max): highest value; for CO (max) / HR (max) / SvO2 (max) / PAP (min) / PVR (min) / SAP (min) / SVR (min) / SaO2 (min): mean ± SEM; for PAP (min): lowest value during 120 min observation; for PVR (min) / SAP (min) / SVR (min) / SaO2 (min): lowest value; for pulmonary vascular resistance (PVR) reduced to: Respimat SMI, mean±95% confidence interval
Experimental: A study was conducted of acute vasodilator challenge during right heart catheter investigation to determine the safety, tolerability and pulmonary vasodilatory potency of inhaled treprostinil applied in seconds by a soft mist inhaler (SMI-TRE).
Inhaled nitric oxide (20 ppm; n=45) and inhaled treprostinil sodium (TRE; n=41) or placebo (n=4) were applied once during right heart catheter investigation. TRE was delivered in 2 breaths (1000 μg/ml aerosol concentration; 30 μg dose; n=12), 3 breaths (1000 μg/ml; 45 μg; n=9) or 2 breaths (2000m/m1; 60 μg; n=20) from a Respimat® SMI. Pulmonary hemodynamics and blood gases were measured at defined time points, observation time following TRE application was 120 minutes.
• A total number of 45 patients with moderate to severe precapillary pulmonary hypertension were enrolled. […] Disease etiologies were idiopathic PAH (iPAH) (n=13), PAH other (n=11), chronic thromboembolic pulmonary hypertension (CTEPH) (n=17) and pulmonary fibrosis (n=4).
Baseline values were determined 20-30 minutes after placement of the catheter. Heart rate, pulmonary and systemic blood pressure and cardiac output were measured and blood gases were taken during each pharmacological intervention at defined time points. Pharmacological interventions included the inhalation of 20 ppm nitric oxide (NO) after evaluation of baseline parameters (n=45) and the consecutive inhalation of placebo (n=4), 30 μg SMI-TRE (n=12), 45 μg SMI-TRE (n=9) or 60 μg (n=20) SMI-TRE. Placebo and treprostinil was applied with the Respimat® SMI. For filling of this device with treprostinil sodium, the placebo solution was withdrawn from the device with a syringe and treprostinil solution was injected into the device under sterile conditions. Aerosol quality was controlled before and after refilling of the SMI devices by laser diffractometry, see e.g. Gessler T., Schmehl T., Hoeper M.M., Rose F., Ghofrani H.A., Olschewski H. et al. Ultrasonic versus jet nebulization of iloprost in severe pulmonary hypertension. Eur. Respir. J. 2001; 17:14-19 incorporated herein in its entirety. […] The aerosol volume delivered by one cycle from the SMI was 15 μl. The solution used for aerosol generation was prepared from treprostinil sodium salt using a standard protocol. The SMI was either filled with a concentration of 1000 μg/ml treprostinil sodium (one aerosol puff=15 μg TRE) or with 2000 μg/ml (one puff=30 μg TRE). The different doses were applied as 2 puffs 1000 μg/ml (30 μg), 3 puffs 1000m/m1 (45 μg) and 2 puffs 2000 μg/ml (60 μg). The placebo was inhaled as 2 puffs from a placebo-SMI. Hemodynamics and gas-exchange parameters were recorded for 120 minutes after TRE inhalation.

[2] = Aerosol quality by laser diffractometry (Respimat SMI); type: physicochemical; settings: treprostinil-aerosol from Respimat SMI
Excerpt: Placebo and treprostinil was applied with the Respimat® SMI. […] Eur. Respir.

[3] = Treprostinil plasma concentrations after single inhalation (study ii), LC-MS/MS; settings: for Cmax: human, plasma, inhaled
Experimental: Treprostinil plasma concentrations were assessed in study ii) at 10, 15, 30, 60 and 120 minutes after inhalation. Treprostinil quantification was done by Alta Analytical Laboratory (El Dorado Hills, Calif., USA) with a validated liquid chromatography atmospheric-pressure ionization tandem mass spectrometry as previously described Wade M., et al. J. Clin. Pharmacol. 2004; 44:503-9. Mixed venous blood was drawn at the depicted time points (FIG. 11) after inhalation, centrifuged and the plasma frozen at −80° C. until temperature controlled shipping on dry ice.

[4] = test system: patients with severe pulmonary hypertension; assay: Study iii) reduction of inhalation time at fixed 15 μg dose, pulsed ultrasonic nebulizer
Experimental: Study iii) was a randomized, open-label, single blind study. The primary objective was to explore the shortest possible inhalation time for a 15 μg dose of inhaled treprostinil. A total of 48 patients inhaled one dose of TRE during right heart catheter investigation. The drug was applied in 18, 9, 3, 2 or 1 breaths. The aerosol was generated by a pulsed ultrasonic nebulizer (OPTINEB®, Nebutec, Elsenfeld, Germany) in cycles consisting of 2 seconds aerosol production (pulse) and 4 seconds pause. The device included an opto-acoustical trigger for the patient to synchronize the inspiration to the end of the aerosol pulse, thereby providing exact dosage. The TRE dose of 15 μg was either generated during 18 cycles (OPTINEB® filled with 100 μg/ml TRE, n=6), 9 cycles (200 μg/ml TRE, n=6), 3 cycles (600 μg/ml TRE, n=21), 2 cycles (1000m/m1 TRE, n=7) or 1 cycle (2000 μg/ml TRE, n=8). Hemodynamics and gas exchange were recorded for 120-180 minutes.

[5] = 15 μg, 1 pulse, 2000 μg/ml, n=8
[6] = 15 μg, 2 pulses, 1000 μg/ml, n=7
[7] = 15 μg, 3 pulses, 600 μg/ml, n=21
[8] = 15 μg, 9 pulses, 200 μg/ml, n=6
[9] = 15 μg, 18 pulses, 100 μg/ml, n=6

CCCCC[C@H](O)CC[C@@H]1[C@H]2Cc3cccc(OCC(=O)[O-])c3C[C@H]2C[C@H]1O.[Na+] [TRE]
120 minute area under the curve for PVR ([1]; 30 μg TRE): −870±940 min % | duration of effect on pulmonary vascular resistance ([1]; 30 μg TRE, compared with 45 and 60 μg): somewhat shorter effect | CO (max) ([1]; 30 μg TRE, n=12): 108.8 ± 3.8% of baseline values | HR (max) ([1]; 30 μg TRE, n=12): 106.1 ± 2.9% of baseline values | SvO2 (max) ([1]; 30 μg TRE, n=12): 102.4 ± 1.3% of baseline values | PAP (min) ([1]; 30 μg TRE, n=12): 83.4 ± 3.2% of baseline values | PVR (min) ([1]; 30 μg TRE, n=12): 84.4 ± 4.4% of baseline values | SAP (min) ([1]; 30 μg TRE, n=12): 97.3 ± 1.9% of baseline values | SVR (min) ([1]; 30 μg TRE, n=12): 97.7 ± 4.2% of baseline values | SaO2 (min) ([1]; 30 μg TRE, n=12): 101 ± 0.3% of baseline values | pulmonary vascular resistance (PVR) reduced to ([1]; 30 μg, 2 breaths 1000 μg/ml): 84.4±8.7 % of baseline values | 120 minute area under the curve for PVR ([1]; 45 μg TRE): −2450±2070 min % | CO (max) ([1]; 45 μg TRE, n=9): 108.6 ± 5.6% of baseline values | HR (max) ([1]; 45 μg TRE, n=9): 99.1 ± 2.4% of baseline values | SvO2 (max) ([1]; 45 μg TRE, n=9): 104.5 ± 4.4% of baseline values | PAP (min) ([1]; 45 μg TRE, n=9): 77.6 ± 6.8% of baseline values | PVR (min) ([1]; 45 μg TRE, n=9): 71.4 ± 8.9% of baseline values | SAP (min) ([1]; 45 μg TRE, n=9): 96.1 ± 1.5% of baseline values | SVR (min) ([1]; 45 μg TRE, n=9): 92 ± 3.9% of baseline values | SaO2 (min) ([1]; 45 μg TRE, n=9): 94.4 ± 1.8% of baseline values | pulmonary vascular resistance (PVR) reduced to ([1]; 45 μg, 3 breaths 1000 μg/ml): 71.4±17.5 % of baseline values | 120 minute area under the curve for PVR ([1]; 60 μg TRE): −2000±900 min % | CO (max) ([1]; 60 μg TRE, n=20): 103.8 ± 2.0% of baseline values | HR (max) ([1]; 60 μg TRE, n=20): 101.1 ± 0.9% of baseline values | SvO2 (max) ([1]; 60 μg TRE, n=20): 102 ± 1.0% of baseline values | PAP (min) ([1]; 60 μg TRE, n=20): 79.5 ± 2.4% of baseline values | PVR (min) ([1]; 60 μg TRE, n=20): 77.5 ± 3.7% of baseline values | SAP (min) ([1]; 60 μg TRE, n=20): 93.6 ± 2.9% of baseline values | SVR (min) ([1]; 60 μg TRE, n=20): 91.3 ± 2.1% of baseline values | SaO2 (min) ([1]; 60 μg TRE, n=20): 95.8 ± 0.9% of baseline values | pulmonary vascular resistance (PVR) reduced to ([1]; 60 μg, 2 breaths): 77.5±7.2 % of baseline values | effect on systemic vascular resistance and pressure ([1]; 30-60 μg from Respimat SMI): very small and not clinically significant | systemic side effects ([1]; 30-60 μg from Respimat SMI): No systemic side effects | tolerability / side effects ([1]; 30-60 μg from Respimat SMI, listed as SMI-TRE): No significant side effects; also recorded: well tolerated; also recorded: only mild and transient cough for a maximum of one minute | duration of PVR reduction / pulmonary vasodilation ([1]; 45 and 60 μg, single inhalation of 2-3 breaths, outlasted observation time): > 120 min | cardiac output ([1]; 120 min observation period): significantly increased | gas exchange ([1]; 120 min observation period): not influenced | heart rate ([1]; 120 min observation period): rather unchanged | aerosol particles mass median aerodynamic diameter [2]: 4 to 5 µm | time of peak plasma concentrations after inhalation ([3]; 30-120 μg, 6 min inhalation): 10 to 15 min | Cmax ([3]; 30 ug): 0.00065 ± 0.00028 µg/mL | Cmax ([3]; 60 ug): 0.00159 ± 0.00017 µg/mL | Cmax ([3]; 90 ug): 0.00174 µg/mL | Cmax ([3]; 120 ug): 0.00351 ± 0.00104 µg/mL | reported side effects ([4]; 15 μg, 48 patients, cough n=6, headache n=2, jaw pain n=1): mild transient cough; also recorded: mild headache; also recorded: mild jaw pain | cardiac output ([4]; 15 μg, all groups): moderately increased | systemic arterial pressure ([4]; 15 μg, all groups): not significantly affected | PAP reduced to [4, 5]: 88±5.4% | PVR reduced to [4, 5]: 80.3±5.2% | PAP reduced to [4, 6]: 86±4% | PVR reduced to [4, 6]: 77.4±4.5% | PAP reduced to [4, 7]: 81.1±4.1% | PVR reduced to [4, 7]: 71.2±6.0% | PAP reduced to [4, 8]: 84.2±4.1% | PVR reduced to [4, 8]: 72.9±4.9% | PAP reduced to [4, 9]: 84.2±4.5% | PVR reduced to [4, 9]: 76.3±5.6% | concentration safely utilized without considerable side effects ([4]; metacresol-free TRE solution, modified OPTINEB): ≤ 2000 µg/mL | duration of pulmonary vasodilation ([4]; single breath of 2000 μg/ml, 15 μg, compared to placebo inhalation): > 3 h

From patent publication US11357782B2, “Treprostinil administration by inhalation” (priority 2006, dated 2022)
